The record followed here is paper PMC11475482, “The 2‐oxoglutarate/malate carrier extends the family of mitochondrial carriers capable of fatty acid and 2,4‐dinitrophenol‐activated proton transport” (Acta Physiologica (Oxford, England), 2024).

Positions count from the first letter of the chain named.

Common to all, as to assay: planar lipid bilayer proton conductance
Common to all, as to type: biochemical

Assay [1] has as its target T1, mOGC (2‐oxoglutarate/malate carrier, SLC25A11) (Mus musculus, UniProt Q9CR62).
T1 construct: 34 kDa monomer, dimer (~69 kDa) on SDS-PAGE (dimer possibly artefact); tag not mentioned
T1 sequence (Q9CR62 2-314): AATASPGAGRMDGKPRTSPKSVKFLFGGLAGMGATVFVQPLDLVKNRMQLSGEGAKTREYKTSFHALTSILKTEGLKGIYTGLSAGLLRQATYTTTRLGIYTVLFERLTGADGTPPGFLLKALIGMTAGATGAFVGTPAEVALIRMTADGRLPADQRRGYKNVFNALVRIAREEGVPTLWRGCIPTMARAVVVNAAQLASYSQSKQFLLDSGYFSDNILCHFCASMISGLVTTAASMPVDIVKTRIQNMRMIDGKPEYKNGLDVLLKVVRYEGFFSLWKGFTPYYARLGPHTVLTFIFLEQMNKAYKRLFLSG

Assay [2] concerns the target T1, mOGC (2‐oxoglutarate/malate carrier, SLC25A11). The note with it: total membrane conductance with mOGC; activator (protonophore); pH 7.34, 32°C.
The target of assay [3] is T2, mOGC (2‐oxoglutarate/malate carrier, SLC25A11) (Mus musculus, UniProt Q9CR62, R90S).
T2 construct: 34 kDa monomer, dimer (~69 kDa) on SDS-PAGE (dimer possibly artefact); tag not mentioned
T2 sequence (Q9CR62 2-314 R90S): T1 sequence (Q9CR62 2-314) with R89S

The target of assay [4] is T1, mOGC (2‐oxoglutarate/malate carrier, SLC25A11). The note with it: read-out: % inhibition at 4 mM.

As for `O=C(O)CC(C(=O)O)c1ccccc1` (stereo not shown) [phenylsuccinate], the IC50 in assay [1] was found to be 1000 ± 110 µM.

Take `CCCCC/C=C\C/C=C\C/C=C\C/C=C\CCCC(=O)O` [arachidonic acid]: the “Gm at 15 mol%” value in assay [2] was found to be 92.5 ± 16.5 nS/cm^2.

Consider `O=C(O)C[C@H](O)C(=O)O` [malate], for which the inhibition at 2000 µM in assay [3] turned out to be 74%. Further, the midpoint of inhibition in assay [1], the IC50, lay at 100 ± 60 µM.

For `Nc1ncnc2c1ncn2[C@@H]1O[C@H](COP(=O)(O)OP(=O)(O)OP(=O)(O)O)[C@@H](O)[C@H]1O` [ATP], the inhibition at 4000 µM in assay [4] was 75%.

On to `O=C(O)CCC(=O)C(=O)O` [2‐oxoglutarate], for which the inhibition at 2000 µM in assay [3] came to 19%. Also, the IC50 in assay [1] worked out at 60 ± 10 µM.
